Experimental data reported in PMC11480361, “Design of a Cereblon construct for crystallographic and biophysical studies of protein degraders” (Nature Communications, 2024).
Where “and” joins values, the source holds several entries; their conditions need not be identical. Equal entries are not always repeated.

Legend:
[1] = tested on: T1, CRBN^ΔN:DDB1^ΔBPB and BRD4^BD2; assay: TR-FRET ternary complex formation with BRD4^BD2; type: binding, human; conditions: for TR-FRET signal: CRBNΔN-DDB1ΔBPB, source data Fig. 3h, replicates
T1 construct: a construct lacking the unstructured N-terminal region of CRBN (CRBN^ΔN:DDB1); Human Brd4^BD2 (residues 333–460, UniProt ID: O60885); His6 (N); purchased Selvita
Protocol: (§1) The mixture was incubated in the dark with gentle rocking for 1 hour before readout using a PHERAstar microplate reader (BMG Labtech) with Pherastar software (version 5.70 R5). All incubations were conducted at 20 °C. Data were fitted by non-linear regression (curve fit) using Prism software (GraphPad version 10). Experiments were conducted in triplicate and were the average of three repeats.

CRBN^TBD and BRD4^BD2 = tested on: T2, CRBN^TBD and BRD4^BD2; assay: TR-FRET ternary complex formation with BRD4^BD2; type: binding, human; conditions: for TR-FRET signal: CRBNTBD, source data Fig. 3h, replicates
T2 construct: Human Brd4^BD2 (residues 333–460, UniProt ID: O60885); GST (cleaved yes); His6; His6 (N); made in house; host or cells: E. coli BL21(DE3)
Protocol: as §1

CRBN^midi = molecular target: T3, CRBN^midi (Homo sapiens, UniProt Q96SW2, C287N/C343E/C78I/DEL188-248/G302D/I92V/INS187GSG/K116N/L342R/L423I/Q134E/R283W/T359I/V293S); assay: SPR, CRBN^midi on chip, binary; type: binding
T3 construct: amino acids 41-187 followed by a Gly-Ser-Gly linker and amino acids 249-426; His6 (N, cleaved yes); made in house; host or cells: E. coli BL21(DE3)
Protocol: All SPR measurements were carried out on a Biacore^TM 8 K (Cytiva, Biacore Insight Control Software version 5.0.18.22405). CRBN^midi was immobilized via a His6 tag on a NiHC 1500 M chip (XanTec) at 25 °C. The chip surface was prepared for ligand (CRBN^midi) capture as per manufacturer’s instructions, flowing 350 mM EDTA, followed by buffer, then loaded using 5 mM NiCl2 followed by buffer. For binary measurements CRBN^midi was diluted to 350 nM and flowed at 10 µL/min. for 420 s to capture a final bound response of 240 RUs. For […] measurements, 10 nM of CRBN^midi was flowed at 10 µl/min. for 420 s to capture a final bound response of approximately 10,000 RUs. The buffer for immobilization and all kinetic measurements was 50 mM Tris pH 8.0, 150 mM NaCl, 0.25 mM TCEP, 0.005% (v/v) Tween-20 and 2% (v/v) DMSO.
(§2) For ternary experiments the analyte was supplemented with 50 µM BRD4^BD2. Each concentration point was flowed independently at 50 µL/min. with an association time of 150 s followed by 500 s dissociation. All measurements were carried out at 20 °C.
(§3) Data was analyzed using Biacore^TM Insight Evaluation Software (version 4.0.8.20368). Raw sensograms were solvent corrected, followed by reference and blank subtraction. […] Alpha, a parameter indicative of cooperativity, was calculated by dividing binary KD by ternary KD.

CRBN^midi and BRD4^BD2 [2] = molecular target: T4, CRBN^midi and BRD4^BD2 (Homo sapiens, UniProt O60885+Q96SW2, C287N/C343E/C78I/DEL188-248/G302D/I92V/INS187GSG/K116N/L342R/L423I/Q134E/R283W/T359I/V293S); assay: SPR, CRBN^midi on chip, ternary (analyte with 50 µM BRD4^BD2); type: binding
T4 construct: amino acids 41-187 followed by a Gly-Ser-Gly linker and amino acids 249-426; Human Brd4^BD2 (residues 333–460, UniProt ID: O60885); His6 (N); made in house; host or cells: E. coli BL21(DE3)
Protocol: All SPR measurements were carried out on a Biacore^TM 8 K (Cytiva, Biacore Insight Control Software version 5.0.18.22405). […] The buffer for immobilization and all kinetic measurements was 50 mM Tris pH 8.0, 150 mM NaCl, 0.25 mM TCEP, 0.005% (v/v) Tween-20 and 2% (v/v) DMSO.
as §2, §3

CRBN^midi and BRD4^BD2 [3] = molecular target: T4, CRBN^midi and BRD4^BD2; assay: TR-FRET ternary complex formation with BRD4^BD2; type: binding; conditions: for TR-FRET signal: CRBNmidi, source data Fig. 3h, replicates
Protocol: as §1

[4] = CRBN^midi immobilization level 9581
[5] = CRBN^midi immobilization level 240

T4 sequence (Q96SW2 with tags, fused parts or gaps with the stated changes limits assumed, other chains not shown): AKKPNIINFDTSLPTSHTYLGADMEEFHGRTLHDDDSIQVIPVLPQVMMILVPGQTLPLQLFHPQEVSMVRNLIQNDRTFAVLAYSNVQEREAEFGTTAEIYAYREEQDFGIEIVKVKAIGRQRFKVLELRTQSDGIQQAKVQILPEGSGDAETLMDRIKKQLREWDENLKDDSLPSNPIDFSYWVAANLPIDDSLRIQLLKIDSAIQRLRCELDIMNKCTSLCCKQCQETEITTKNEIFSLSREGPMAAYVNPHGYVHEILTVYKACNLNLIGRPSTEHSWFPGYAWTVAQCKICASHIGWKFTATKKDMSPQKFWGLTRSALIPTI
T3 sequence (Q96SW2 with tags, fused parts or gaps with the stated changes limits assumed): as the sequence (Q96SW2 with tags, fused parts or gaps with the stated changes limits assumed, other chains not shown) above

In the case of `Cc1nnc2n1-c1ccc(-c3cnn(CCCCCCCN4CCC(c5cccc6c5CN(C5CCC(=O)NC5=O)C6=O)CC4)c3)cc1C(c1ccc(Cl)cc1)=NC21CC1` (centres unmarked) [CFT-1297], the “maximal concentration of bell-shaped TR-FRET profile” value ([1]; CRBN^ΔN:DDB1^ΔBPB, BRD4^BD2) is reported as 17 nM, the TR-FRET signal ([1]; CFT-1297 6.3657e-10 M) is reported as 5 and -3 and 2 and 6 and 3 and 13 and 20 and the TR-FRET signal ([1]; CFT-1297 2.01156e-9 M) is reported as 73 and 94 and 64 and 70 and 78 and 68 and 83 and 85 and 77. For the same molecule, the TR-FRET signal ([1]; CFT-1297 6.35653e-9 M) was 339 and 359 and 325 and 342 and 338 and 345 and 352 and 373 and 376, the TR-FRET signal ([1]; CFT-1297 2.00866e-8 M) was 756 and 794 and 735 and 761 and 799 and 801 and 763 and 726 and 762 and the TR-FRET signal ([1]; CFT-1297 6.34738e-8 M) was 382 (2×) and 392 and 395 and 387 and 370 and 383 and 372 and 363. The TR-FRET signal ([1]; CFT-1297 2.00577e-7 M) was 131 and 143 and 127 and 140 and 124 and 132 and 129 and 147 and 119, the TR-FRET signal ([1]; CFT-1297 6.33824e-7 M) was 50 and 51 and 69 and 66 and 56 and 71 and 52 and 54 and 38 and the TR-FRET signal ([1]; CFT-1297 2.00288e-6 M) was 14 and 4 and 16 and 27 and 34 and 33 and -10 and -1 and -13. The TR-FRET signal ([1]; CFT-1297 6.32911e-6 M) was 11 and 4 and 8 and 21 and 25 and 18 and 13 and 9 and 23, the TR-FRET signal (CRBN^TBD and BRD4^BD2; CFT-1297 6.3657e-10 M) was -100 and -96 and -91 and -28 and -32 and -31 and -4 and -7 and 0 and the TR-FRET signal (CRBN^TBD and BRD4^BD2; CFT-1297 2.01156e-9 M) was 20 and 18 and 19 and 27 (2×) and 31 and 16 and 0 and 9. The TR-FRET signal (CRBN^TBD and BRD4^BD2; CFT-1297 6.35653e-9 M) was 17 and 14 and 10 and 42 and 47 and 37 and 20 and 23 and 11, the TR-FRET signal (CRBN^TBD and BRD4^BD2; CFT-1297 2.00866e-8 M) was 45 and 44 and 40 and 53 and 52 (2×) and 41 and 50 and the TR-FRET signal (CRBN^TBD and BRD4^BD2; CFT-1297 6.34738e-8 M) was 117 and 115 and 122 and 101 and 103 and 107 and 98 and 97 and 102. The TR-FRET signal (CRBN^TBD and BRD4^BD2; CFT-1297 2.00577e-7 M) was 132 and 129 and 128 and 106 and 105 and 108 and 111 and 110, the TR-FRET signal (CRBN^TBD and BRD4^BD2; CFT-1297 6.33824e-7 M) was 109 and 104 and 106 and 98 and 78 and 100 and the TR-FRET signal (CRBN^TBD and BRD4^BD2; CFT-1297 2.00288e-6 M) was 112 and 117 and 108 and 92 and 89 and 102 and 91 and 95 and 90. For the same molecule, the TR-FRET signal (CRBN^TBD and BRD4^BD2; CFT-1297 6.32911e-6 M) was 131 (2×) and 129 and 112 and 107 and 117 and 110 and 105, the “ternary complex formation by TR-FRET” value (CRBN^TBD and BRD4^BD2; CRBN^TBD, BRD4^BD2) was “no significant ternary complex formation was detected” and the “Experimental Rmax / Theoretical Rmax” value (CRBN^midi) was 93%. The Kd (CRBN^midi) was 2100 nM, the “Experimental Rmax” value (CRBN^midi; [4]) was 196 and the “Theoretical Rmax” value (CRBN^midi; [4]) was 211. The “Experimental Rmax / Theoretical Rmax” value (CRBN^midi and BRD4^BD2 [2]) was 55%, the “cooperativity α (binary KD / ternary KD)” value (CRBN^midi and BRD4^BD2 [2]) was 3 and the “Experimental Rmax” value (CRBN^midi and BRD4^BD2 [2]; [5]) was 56. The “Theoretical Rmax” value (CRBN^midi and BRD4^BD2 [2]; [5]) was 101, the “maximal concentration of bell-shaped TR-FRET profile” value (CRBN^midi and BRD4^BD2 [3]; CRBN^midi, BRD4^BD2) was 21 nM and the TR-FRET signal (CRBN^midi and BRD4^BD2 [3]; CFT-1297 6.3657e-10 M) was 120 and 116 and 105 and 148 and 130 and 152 and 174 and 158 and 167. For the same molecule, the TR-FRET signal (CRBN^midi and BRD4^BD2 [3]; CFT-1297 2.01156e-9 M) was 347 and 363 (2×) and 394 and 412 and 387 and 420 (2×) and 430, the TR-FRET signal (CRBN^midi and BRD4^BD2 [3]; CFT-1297 6.35653e-9 M) was 931 and 924 and 913 and 954 and 948 and 945 and 981 and 982 and 990 and the TR-FRET signal (CRBN^midi and BRD4^BD2 [3]; CFT-1297 2.00866e-8 M) was 1502 and 1521 and 1538 and 1551 and 1571 and 1561 and 1573 and 1559 and 1582. For the same molecule, the TR-FRET signal (CRBN^midi and BRD4^BD2 [3]; CFT-1297 6.34738e-8 M) was 850 and 872 and 886 and 873 and 864 and 854 and 799 and 811 and 813, the TR-FRET signal (CRBN^midi and BRD4^BD2 [3]; CFT-1297 2.00577e-7 M) was 376 and 352 and 403 and 396 and 394 (2×) and 313 and 326 and 341 and the TR-FRET signal (CRBN^midi and BRD4^BD2 [3]; CFT-1297 6.33824e-7 M) was 185 and 204 and 173 and 213 and 220 and 205 and 126 and 137 and 130. For the same molecule, the TR-FRET signal (CRBN^midi and BRD4^BD2 [3]; CFT-1297 2.00288e-6 M) was 130 and 122 and 145 and 152 and 153 and 147 and 79 and 88 and 84 and the TR-FRET signal (CRBN^midi and BRD4^BD2 [3]; CFT-1297 6.32911e-6 M) was 113 and 129 and 102 and 140 and 135 and 145 and 75 and 68 and 78.
